Test results reported in patent US7741479B2, “Urea inhibitors of MAP kinases” (Locus Pharmaceuticals, Inc., priority 2004, dated 2010).

These compounds were tested against T1, p38 (Homo sapiens, UniProt Q16539) (assay: Protein Kinase Assay (33P incorporation from γ-[33P]ATP into GST-ATF-2 substrate)). Conditions: compound at 3 μM (noted beside the value in Table 1); read-out: Protein Kinase (% Inhibition).
T1 construct: made in house
Type: biochemical
Outline: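 Non-activated human p38 (10 nM) was preincubated with compounds for 20 min at 30° C, then GST-ATF-2 (aa 19-96) and γ-[33P]ATP were added for 70 min at 30° C. Reactions were stopped with phosphoric acid; phosphorylated substrate was captured on phosphocellulose and scintillation-counted.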

T1 sequence (Q16539 whole entry): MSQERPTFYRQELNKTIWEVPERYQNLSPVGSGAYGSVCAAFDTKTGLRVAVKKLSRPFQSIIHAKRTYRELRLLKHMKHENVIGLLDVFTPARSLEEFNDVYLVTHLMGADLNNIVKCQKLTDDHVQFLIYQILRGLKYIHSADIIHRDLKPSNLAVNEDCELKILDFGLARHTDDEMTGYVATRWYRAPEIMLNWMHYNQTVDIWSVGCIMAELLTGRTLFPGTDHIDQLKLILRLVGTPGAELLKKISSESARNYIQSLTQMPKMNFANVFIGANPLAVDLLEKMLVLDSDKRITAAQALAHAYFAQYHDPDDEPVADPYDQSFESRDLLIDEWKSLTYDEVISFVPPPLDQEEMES

For `CC(C)(C)c1cc(C(=O)N2CCS(=O)(=O)CC2)c(NC(=O)Nc2ccc(C#N)c3ccccc23)s1` [Example 43, 1-[5-tert-butyl-3-(1,1-dioxo-1λ^6-thiomorpholine-4-carbonyl)thiophen-2-yl]-3-(4-cyanonaphthalen-1-yl)urea], the inhibition at 3 µM was 76 to 100%.

Same assay, conditions: compound at 3 μM; read-out: Protein Kinase (% Inhibition at 3 μM)

First: CC(C)(C)c1cc(C(=O)N2CCNS(=O)(=O)CC2)c(NC(=O)Nc2ccc3c(c2)OC(F)(F)O3)s1 [Example 94, 1-[5-tert-Butyl-3-(1,1-dioxo-1λ^6-[1,2,5]thiadiazepane-5-carbonyl)thiophen-2-yl]-3-(2,2-difluorobenzo[1,3]dioxol-5-yl)urea]
Second: CC(C)(C)c1cc(C(=O)N2CCS(=O)(=O)CC2)c(NC(=O)NC2(c3ccccc3)CC2)s1 [Example 77, 1-[5-tert-butyl-3-(1,1-dioxo-1λ^6-thiomorpholine-4-carbonyl)thiophen-2-yl]-3-(1-phenylcyclopropyl)urea]
The inhibition at 3 µM of the first is higher: 76 to 100% for the first, 26 to 50% for the second.

`CC1C(=O)NCCN1C(=O)c1cc(C(C)(C)C)sc1NC(=O)Nc1cccc2ccccc12` (stereo not drawn) [Example 87, 1-[5-tert-butyl-3-(2-methyl-3-oxopiperazine-1-carbonyl)thiophen-2-yl]-3-naphthalen-1-ylurea] and `CC(C)(C)c1cc(C(=O)N[C@H]2CC(=O)NC2=O)c(NC(=O)Nc2cccc3ccccc23)s1` [Example 86] fall in the same range of inhibition at 3 µM: 76 to 100% for the first, 76 to 100% for the second.

Same assay, conditions: compound at 10 μM

`CC(C)(C)c1cc(NC(=O)Nc2ccc(Cl)cc2)n(C(=O)N2CCS(=O)(=O)CC2)n1` [Example 17, 1-[5-tert-butyl-2-(1,1-dioxo-1λ^6-thiomorpholine-4-carbonyl)-2H-pyrazol-3-yl]-3-(4-chlorophenyl)urea] and `CC(C)(C)c1cc(C(=O)N2CCS(=O)(=O)CC2)c(NC(=O)Nc2ccc(Cl)cc2)s1` [Example 1, 1-[5-tert-butyl-3-(1,1-dioxo-1λ^6-thiomorpholine-4-carbonyl)thiophen-2-yl]-3-(4-chlorophenyl)urea] fall in the same range of inhibition at 10 µM: 76 to 100% for the first, 76 to 100% for the second.

Compared with `CC(C)(C)c1cc(C(=O)N2CCOCC2)c(NC(=O)Nc2cccc3ccccc23)s1` [Example 16, 1-[5-tert-butyl-3-(morpholine-4-carbonyl)thiophen-2-yl]-3-naphthalen-1-yl-urea], `CC(C)(C)c1cc(CN2CCOCC2)c(NC(=O)Nc2cccc3ccccc23)s1` [Example 19, 1-(5-tert-butyl-3-morpholin-4-ylmethylthiophen-2-yl)-3-naphthalen-1-ylurea] is higher in inhibition at 10 µM: 26 to 50% for the first, 51 to 75% for the second.

Compared with `CC(C)(C)c1cc(CN2CCSCC2)c(NC(=O)Nc2cccc3ccccc23)s1` [Example 20, 1-(5-tert-butyl-3-thiomorpholin-4-ylmethylthiophen-2-yl)-3-naphthalen-1-yl-urea], `CC(C)(C)c1cc(C(=O)N2CCS(=O)(=O)CC2)c(NC(=O)Nc2ccnc3ccccc23)s1` [Example 31, 1-[5-tert-butyl-3-(1,1-dioxo-1λ^6-thiomorpholine-4-carbonyl)thiophen-2-yl]-3-quinolin-4-ylurea] is higher in inhibition at 10 µM: 0 to 25% for the first, 51 to 75% for the second.

`CC(C)(C)c1cc(C(=O)N2CCS(=O)(=O)CC2)c(NC(=O)Nc2ccc3c(c2)NC(=O)CC3)s1` [Example 33, 1-[5-tert-butyl-3-(1,1-dioxo-1λ^6-thiomorpholine-4-carbonyl)thiophen-2-yl]-3-(2-oxo-1,2,3,4-tetrahydroquinolin-7-yl)urea] gave an inhibition at 10 µM of 0 to 25%.

Same assay, conditions: same procedure at 0.5 μM

`CC(C)(C)c1cc(C(=O)NCc2cccnc2)c(NC(=O)Nc2cccc(Cl)c2Cl)s1` [Example 130, 5-tert-butyl-2-[3-(2,3-dichlorophenyl)ureido]thiophene-3-carboxylic acid (pyridin-3-ylmethyl)amide] and `CC(C)(C)c1cc(C(=O)NCc2cccnc2)c(NC(=O)Nc2cccc3ccccc23)s1` [Example 131, 5-tert-Butyl-2-(3-naphthalen-1-yl-ureido)thiophene-3-carboxylic acid (pyridin-3-ylmethyl)amide] fall in the same range of inhibition at 0.5 µM: 76 to 100% for the first, 76 to 100% for the second.

`CC(C)(C)c1cc(C(=O)N2CCNC(=O)C2(C)C)c(NC(=O)Nc2cccc(Cl)c2Cl)s1` [Example 136, 1-[5-tert-Butyl-3-(2,2-dimethyl-3-oxo-piperazine-1-carbonyl)thiophen-2-yl]-3-(2,3-dichlorophenyl)urea] was tested, and the inhibition at 0.5 µM was 76 to 100%.
